Laboratory results as given in publication PMC10744032, “Regioselective and Stereoselective Synthesis of Parthenolide Analogs by Acyl Nitroso-Ene Reaction and Their Biological Evaluation against Mycobacterium tuberculosis” (International Journal of Molecular Sciences, 2023).
≈ marks a conversion by molar mass, not a printed value. Like-named read-outs stand apart in the source and are kept apart here.

Legend:
[1] = test system: M. tuberculosis H37Rv; test: microbe, parasite or virus in culture; assay type: cell-based, Mycobacterium tuberculosis; conditions: Mycobacterium tuberculosis, H37RV, 168 h, 7 days incubation, resazurin readout, tested 300 to 2.3 µM, read-out: MIC90 M. tuberculosis (REMA)
[2] = test system: M. tuberculosis H37Rv expressing GFP (H37Rv::pJKD6); test: microbe, parasite or virus in culture; assay type: cell-based, Mycobacterium tuberculosis; conditions: Mycobacterium tuberculosis, H37RV, 168 h; read-out: MIC98 M. tuberculosis (GFP)
[3] = Cytotoxicity by live imaging (Hoechst 33342 / propidium iodide); assay type: cell-based; conditions: mouse
Experimental: The cytotoxicity of the compounds to BALB/3T3 cells was determined using live imaging following both Hoechst 33342 and propidium iodide staining. Briefly, BALB/3T3 cells were seeded in a 384-well plate and 24 h later, the compounds were added (0, 12.5, 25, 50, and 100 µM) to the culture medium, as well as Hoechst 33342 and propidium iodide (PI). Then, 24 h and 48 h after the compounds were added, live imaging was performed using an In Cell Analyzer 6000 (STP GE Healthcare, Glascow, UK). The cytotoxicity was defined based on the ratio of the population of dead or dying cells (propidium iodide staining) to the total cell population (Hoechst staining), as determined using Columbus software 2.9.1 (PerkinElmer Informatics, WA, USA). The compounds were tested in triplicate. Carfilzomib (500, 250, 140, and 60 nM) was used as the positive control in this assay.

[4] = Kinetic solubility in PBS by LC-MS/MS; assay type: physicochemical; conditions: for solubility at 24 h: kinetic from dmso stock; for fold higher solubility in PBS compared to parthenolide: relative to parthenolide
Experimental: The kinetic solubility was determined using LC–MS/MS analysis in PBS at pH 7.4. Briefly, a 10 mM 100% DMSO solution of the compound was diluted 50-fold either in PBS at pH 7.4 (in triplicate) or in DMSO in polypropylene tubes (n = 3 for PBS and n = 6 for DMSO). The tubes were gently shaken for 24 h at 21 °C. Then, the three PBS tubes and three of the six DMSO tubes were centrifuged for 5 min at 4000 rpm and filtered over 0.45 μm filters (Millex-LH Millipore). Then, 40 μL of each solution was diluted in 160 μL of MeCN and 40 µL of Milli-Q water and transferred to matrix tubes for the LC–MS/MS analysis. The solubility was determined according to the following formula: Solubility (μM) = (AUC (filtered PBS)/AUC (not filtered DMSO)) × 200. The test was validated if (AUC (not filtered DMSO) − AUC (filtered DMSO))/AUC (not filtered DMSO) ≤ 10%.

[5] = test system: Staphylococcus aureus (SH1000); test: microbe, parasite or virus in culture; assay type: cell-based; conditions: Staphylococcus aureus; 5 h incubation, resazurin readout; tested 300 to 2.3 µM; read-out: MIC90 S. aureus (REMA)

C=C1CC[C@H]2C(=C)C(=O)O[C@@H]2[C@@H]2O[C@]2(C)CC[C@H]1N(O)C(=O)Nc1ccc(OC)cc1 [Compound 7, 1-hydroxy-3-(4-methoxyphenyl)-1-[(1S,2S,4R,7R,11S)-4-methyl-8,12-dimethylene-13-oxo-3,14-dioxatricyclo[9.3.0.02,4]tetradecan-7-yl]urea]
MIC90 [1]: 19 µM (≈ 8.14 µg/mL) | MIC [2]: 19 µM (≈ 8.14 µg/mL) | CC50 [3]: 25 µM | solubility at 24 h ([4]; 21 °C, pH 7.4, aqueous buffer): 184 µM (≈ 78.8 µg/mL)

C=C1CC[C@H]2C(=C)C(=O)O[C@@H]2[C@@H]2O[C@]2(C)CC[C@H]1N(O)C(=O)Oc1ccccc1 [Compound 17, Phenyl-N-hydroxy-N-[(1S,2S,4R,7R,11S)-4-methyl-8,12-dimethylene-13-oxo-3,14-dioxatricyclo[9.3.0.02,4]tetradecan-7-yl]carbamate]
MIC90 [1]: 38 µM (≈ 15.2 µg/mL) | MIC [2]: 38 µM (≈ 15.2 µg/mL) | CC50 ([3]; BALB/3T3 cells, 0, 12.5, 25, 50, 100 µM, imaging at 24 h and 48 h, read-out: Cytotoxicity Balb3T3 CC50): 12.5 µM | solubility at 24 h ([4]; aqueous buffer, kinetic solubility, PBS pH 7.4, 24 h at 21 °C, from 10 mM DMSO solution diluted 50-fold, read-out: Solubility): 189 µM (≈ 75.5 µg/mL)

C=C1CC[C@H]2C(=C)C(=O)O[C@@H]2[C@@H]2O[C@]2(C)CC[C@H]1N(O)C(=O)Nc1ccccc1 [Compound 4, 1-hydroxy-1-[(1S,2S,4R,7R,11S)-4-methyl-8,12-dimethylene-13-oxo-3,14-dioxatricyclo[9.3.0.02,4]tetradecan-7-yl]-3-phenyl-urea]
MIC90 [1]: 19 to 38 µM (≈ 7.57 to 15.1 µg/mL) | MIC [2]: 9.4 to 19 µM (≈ 3.75 to 7.57 µg/mL) | MIC90 [5]: > 300 µM | CC50 [3]: 25 µM | solubility at 24 h ([4]; 21 °C, pH 7.4, aqueous buffer): 186 µM (≈ 74.1 µg/mL)

C=C1CC[C@H]2C(=C)C(=O)O[C@@H]2[C@@H]2O[C@]2(C)CC[C@H]1N(O)C(=O)Nc1ccc(F)cc1 [Compound 8, 3-(4-fluorophenyl)-1-hydroxy-1-[(1S,2S,4R,7R,11S)-4-methyl-8,12-dimethylene-13-oxo-3,14-dioxatricyclo[9.3.0.02,4]tetradecan-7-yl]urea]
MIC90 [1]: 19 µM (≈ 7.91 µg/mL) | MIC [2]: 19 µM (≈ 7.91 µg/mL) | CC50 [3]: > 25 µM | solubility at 24 h ([4]; 21 °C, pH 7.4, aqueous buffer): 188 µM (≈ 78.3 µg/mL) | fold higher solubility in PBS compared to parthenolide [4]: 1.3 fold

C=C1CC[C@H]2C(=C)C(=O)O[C@@H]2[C@@H]2O[C@]2(C)CC[C@H]1N(O)C(N)=O [Compound 9, 1-hydroxy-1-[(1S,2S,4R,7R,11S)-4-methyl-8,12-dimethylene-13-oxo-3,14-dioxatricyclo[9.3.0.02,4]tetradecan-7-yl]urea]
MIC90 [1]: ~150 µM (≈ 48.4 µg/mL) | MIC [2]: 75 to 150 µM (≈ 24.2 to 48.4 µg/mL) | CC50 [3]: > 100 µM | solubility at 24 h ([4]; 21 °C, pH 7.4, aqueous buffer): > 200 µM | fold higher solubility in PBS compared to parthenolide [4]: 1.5 fold

C=C1CC[C@H]2C(=C)C(=O)O[C@@H]2[C@@H]2O[C@]2(C)CC[C@H]1N(O)C(=O)OCc1ccccc1 [Compound 14, Benzyl-N-hydroxy-N-[(1S,2S,4R,7R,11S)-4-methyl-8,12-dimethylene-13-oxo-3,14-dioxatricyclo[9.3.0.02,4]tetradecan-7-yl]carbamate]
MIC90 [1]: 75 µM (≈ 31 µg/mL) | MIC [2]: 38 µM (≈ 15.7 µg/mL) | MIC90 [5]: > 300 µM | CC50 [3]: > 12.5 µM | solubility at 24 h ([4]; 21 °C, pH 7.4, aqueous buffer): 191 µM (≈ 79 µg/mL)

C=C1CC[C@H]2C(=C)C(=O)O[C@@H]2[C@@H]2O[C@]2(C)CC[C@H]1N(O)C(=O)OC1CCOCC1 [Compound 22, Tetrahydropyran-4-yl-N-hydroxy-N-[(1S,2S,4R,7R,11S)-4-methyl-8,12-dimethylene-13-oxo-3,14-dioxatricyclo[9.3.0.02,4]tetradecan-7-yl]carbamate]
MIC90 [1]: 75 µM (≈ 30.6 µg/mL) | MIC [2]: 38 µM (≈ 15.5 µg/mL) | CC50 [3]: > 50 µM | solubility at 24 h ([4]; 21 °C, pH 7.4, aqueous buffer): 193 µM (≈ 78.6 µg/mL)

C=C1CC[C@H]2C(=C)C(=O)O[C@@H]2[C@@H]2O[C@]2(C)CC[C@H]1N(O)C(=O)Nc1ccc2c(c1)OCO2 [Compound 10, 3-(1,3-benzodioxol-5-yl)-1-hydroxy-1-[(1S,2S,4R,7R,11S)-4-methyl-8,12-dimethylene-13-oxo-3,14-dioxatricyclo[9.3.0.02,4]tetradecan-7-yl]urea]
MIC90 [1]: 38 µM (≈ 16.8 µg/mL) | MIC [2]: 19 µM (≈ 8.41 µg/mL) | CC50 [3]: 12.5 µM | solubility at 24 h ([4]; 21 °C, pH 7.4, aqueous buffer): 182 µM (≈ 80.5 µg/mL)

C=C1CC[C@H]2C(=C)C(=O)O[C@@H]2[C@@H]2O[C@]2(C)CC[C@H]1N(O)C(=O)Nc1ccc(C)cc1 [Compound 5, 1-hydroxy-1-[(1S,2S,4R,7R,11S)-4-methyl-8,12-dimethylene-13-oxo-3,14-dioxatricyclo[9.3.0.02,4]tetradecan-7-yl]-3-(p-tolyl)urea]
MIC90 [1]: 19 to 38 µM (≈ 7.84 to 15.7 µg/mL) | MIC [2]: 19 µM (≈ 7.84 µg/mL) | MIC90 [5]: > 300 µM | CC50 [3]: 12.5 µM | solubility at 24 h ([4]; 21 °C, pH 7.4, aqueous buffer): 186 µM (≈ 76.7 µg/mL)

C=C1CC[C@H]2C(=C)C(=O)O[C@@H]2[C@@H]2O[C@]2(C)CC[C@H]1N(O)C(=O)NCCCOCC [Compound 11, 3-(3-ethoxypropyl)-1-hydroxy-1-[(1S,2S,4R,7R,11S)-4-methyl-8,12-dimethylene-13-oxo-3,14-dioxatricyclo[9.3.0.02,4]tetradecan-7-yl]urea]
MIC90 [1]: 150 µM (≈ 61.3 µg/mL) | MIC [2]: 150 µM (≈ 61.3 µg/mL) | CC50 [3]: > 100 µM | solubility at 24 h ([4]; 21 °C, pH 7.4, aqueous buffer): 197 µM (≈ 80.5 µg/mL)
